# Measurements from article PMC7332124, “Design, One Pot Synthesis and Molecular Docking Studies of Substituted-1H-Pyrido[2,1-b] Quinazolines as Apoptosis-Inducing Anticancer Agents” (Asian Pacific Journal of Cancer Prevention : APJCP, 2020).
# Key:
# Format in all cases: cell-based, human
# A549 = assay: Cell growth inhibition assay (MTT, day 0 subtracted); conditions: Homo sapiens, 72 h, read-out: In vitro Growth Inhibitory Concentration (GI50)
# Method: (§1) Various cancer cells were used to screen anticancer activity of newly synthesized compounds. Lung (A549 and NCI-H460), colon (HCT-15 and HT-29), prostate (DU-145) cancer cells maintained in RPMI-1640 media while normal lung fibroblasts cell line (HFL-1) were maintained in F-12 k medium supplemented with 10% fetal bovine serum (FBS) with 1% antibiotic-antimycotic solution (Sigma). Cells were maintained in 5% CO2 with 98% relative humidity at 37 °C in incubator. When 80-90% of confluency is reached, they were sub-cultured using 0.25% trypsin/1 mM EDTA solution for further passage. The compounds in this series were dissolved in DMSO (1 %) to prepare the stock solution of 10 mM. Further dilutions were made accordingly with respective media to obtain the required concentrations.
# (§2) Briefly, the cells were seeded on to a 96-well plate in 100 µl of medium. Following 24 h MTT reagent was added in few wells and day 0 absorbance was analyzed, and then cells were treated with compounds and incubated for an additional 72 h. After the treatment, 100 µl of MTT (0.5 mg/ml) was added and incubated at 37 °C for 4 h. Then MTT reagent was suctioned, the insoluble formazan crystals were dissolved in DMSO and formazan product formed is measured at 570 nm wavelength. The day 0 absorbance was subtracted from the 72 h incubated plates and data were plotted as a percentage of untreated control (Dai et al., 2011).
# NCI-H460 = assay: as above; conditions: Homo sapiens, 72 h, read-out: In vitro Growth Inhibitory Concentration (GI50)
# Method: as §1, §2
# HCT-15 = assay: as above; conditions: Homo sapiens, 72 h, read-out: In vitro Growth Inhibitory Concentration (GI50)
# Method: as §1, §2
# [1] = system: HFL-1 normal lung fibroblasts; assay: as above; conditions: Homo sapiens, HFL1, 72 h, read-out: In vitro Growth Inhibitory Concentration (GI50)
# Method: as §1, §2
# DU-145 = assay: as above; conditions: Homo sapiens, 72 h, read-out: In vitro Growth Inhibitory Concentration (GI50)
# Method: as §1, §2
# HT-29 = assay: as above; conditions: Homo sapiens, 72 h, read-out: In vitro Growth Inhibitory Concentration (GI50)
# Method: as §1, §2
# A549 cells [2] = assay: Mitochondrial membrane potential (JC-1, flow cytometry); conditions: 0.5-5 µM, 72 h
# Method: The cyanine dye JC-1 (5,5′,6,6′-tetrachloro-1,1′,3,3′-tetraethylbenzimidazolylcarbocyanine iodide) is a cell-penetrating dye that facilitates discrimination of energized and de energized mitochondria thus, high mitochondrial potential shifts its emission fluorescence from green to red (Vundru et al., 2013).This phenomenon was assessed by flow cytometry (FACS). A549 cells (1.5x10^6 cells/ml) were seeded in 12 well plates and allowed to adhere for overnight. Then the cells were incubated with compound 4q at 0.5, 1, 2.5 and 5 µM concentrations for 72 h. Cells were collected and washed with PBS and resuspended in solution of JC- 1 (1 µM) and incubated for 30 min in incubator at 37 °C. The cells were washed twice with PBS and cells were trypsinized, centrifuged and 10,000 events were analyzed by flow cytometer (BD FACSVerse™, USA).
# A549 cells [3] = assay: Acridine orange/ethidium bromide (AO/EB) staining; conditions: 0.5, 1, 2.5 and 5 µM, 72 h
# Method: A549 cells were seeded at a concentration of 1.2x10^5 cells/ml and treated with various concentrations of compound 4q and the plates were incubated for 72 h. Then, 100 µl from fluorescent dyes comprising both Acridine Orange (Helfrich et al., 2016) and Ethidium Bromide (Vundru et al., 2013) were added into each well in equal volumes (10 µg/ml) respectively (Nekkanti et al., 2017), then the cells were Immediately visualized under fluorescence microscope with excitation (488 nm) and emission (550 nm) at 200X magnification.
smiles,measurement,setting,value
"C1=CC2=NC3=C(CCCC3)C(c3cn(Cc4ccccc4)c4ccccc34)N2C=C1 (centres unmarked) [Compound 4i, 11-(1-benzyl-1H-indol-3-yl)-2,3,4, 11-tetrahydro-1H-pyrido [2,1-b] quinazoline]",GI50,A549,2700 ± 180 nM
same,GI50,NCI-H460,3.24 ± 0.4 µM
same,GI50,HCT-15,6.27 ± 0.19 µM
same,GI50,[1],4.54 ± 0.59 µM
same,GI50,DU-145,9.64 ± 0.37 µM
same,GI50,HT-29,5.98 ± 0.18 µM
same,mitochondrial membrane potential (ΔΨm),A549 cells [2],significant collapse in the ΔΨm
same,apoptotic morphology by AO/EB staining,A549 cells [3],induced apoptosis in A549 lung cancer cells
